Assay results published in ChEMBL document CHEMBL1201862, “PubChem BioAssay data set” (2004).
The source made the active and inactive calls.

Assays:
Cysteine protease ATG4B = target: T1, Cysteine protease ATG4B (Homo sapiens, UniProt Q9Y4P1); type: functional;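 note: Fluorescence-based dose-response confirmation assay measuring inhibition of ATG4B activity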
T1 sequence (Q9Y4P1 whole entry): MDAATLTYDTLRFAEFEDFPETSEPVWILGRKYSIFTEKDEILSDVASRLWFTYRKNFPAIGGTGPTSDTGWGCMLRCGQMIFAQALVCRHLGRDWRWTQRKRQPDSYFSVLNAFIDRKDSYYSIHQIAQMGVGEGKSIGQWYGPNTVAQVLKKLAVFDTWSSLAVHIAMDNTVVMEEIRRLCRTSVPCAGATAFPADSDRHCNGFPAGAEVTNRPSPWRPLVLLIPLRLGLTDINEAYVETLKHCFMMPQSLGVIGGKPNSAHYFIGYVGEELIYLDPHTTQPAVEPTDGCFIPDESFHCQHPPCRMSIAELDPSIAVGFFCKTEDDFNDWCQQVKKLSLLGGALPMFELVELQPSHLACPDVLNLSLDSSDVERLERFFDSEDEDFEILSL

Phospholipase A2 = Phospholipase A2 (Homo sapiens, UniProt P04054); type: functional;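 note: confirmatory dose-response counterscreen on phospholipase A2, testing hits that came from an ultra-high-throughput screen for ATG4B inhibitors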
Bcl-2-related protein A1 = target: T2, Bcl-2-related protein A1 (Mus musculus, UniProt Q07440); type: functional;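 note: confirmatory dose–response counterscreen on Bfl-1, used to check hits from a UBC13 polyubiquitin inhibitor campaign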
T2 sequence (Q07440 whole entry): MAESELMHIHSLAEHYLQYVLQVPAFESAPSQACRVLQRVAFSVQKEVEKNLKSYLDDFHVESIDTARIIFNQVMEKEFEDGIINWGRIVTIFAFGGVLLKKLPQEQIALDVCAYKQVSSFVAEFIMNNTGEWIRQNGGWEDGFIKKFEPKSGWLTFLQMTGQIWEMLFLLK

[1] = target: T3, Ubiquitin-conjugating enzyme E2 N (Homo sapiens, UniProt P61088); type: functional
T3 sequence (P61088 whole entry): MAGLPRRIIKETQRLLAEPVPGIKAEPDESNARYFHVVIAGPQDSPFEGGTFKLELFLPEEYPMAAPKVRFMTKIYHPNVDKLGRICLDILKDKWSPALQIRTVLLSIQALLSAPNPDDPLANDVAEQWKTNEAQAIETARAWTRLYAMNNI

[2] = target: T3, Ubiquitin-conjugating enzyme E2 N; type: functional; remark: listed apart in the source
[3] = target: T4, RNA-binding protein pos-1 (Caenorhabditis elegans, UniProt G5EF15); test: disruptors of C. elegans POS-1 RNA interaction – biochemical, fluorescence polarization, dose response (AID 1964);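 note: purified POS-1 fused to maltose binding protein made in E. coli; potency of compounds blocking POS-1 binding to fluorescent RNA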
T4 sequence (G5EF15 whole entry): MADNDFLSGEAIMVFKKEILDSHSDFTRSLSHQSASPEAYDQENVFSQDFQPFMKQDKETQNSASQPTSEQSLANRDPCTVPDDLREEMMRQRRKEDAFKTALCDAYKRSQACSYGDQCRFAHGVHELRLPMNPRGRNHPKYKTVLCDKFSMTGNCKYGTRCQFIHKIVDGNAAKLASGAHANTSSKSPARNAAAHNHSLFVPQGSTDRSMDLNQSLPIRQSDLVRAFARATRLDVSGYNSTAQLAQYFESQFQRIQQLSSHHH

[4] = target: T5, Zinc finger protein mex-5 (Caenorhabditis elegans, UniProt Q9XUB2); test: potency of MEX-5 RNA-binding blockers – biochemical, C. elegans, fluorescence polarization, dose response (AID 1960)
T5 sequence (Q9XUB2 whole entry): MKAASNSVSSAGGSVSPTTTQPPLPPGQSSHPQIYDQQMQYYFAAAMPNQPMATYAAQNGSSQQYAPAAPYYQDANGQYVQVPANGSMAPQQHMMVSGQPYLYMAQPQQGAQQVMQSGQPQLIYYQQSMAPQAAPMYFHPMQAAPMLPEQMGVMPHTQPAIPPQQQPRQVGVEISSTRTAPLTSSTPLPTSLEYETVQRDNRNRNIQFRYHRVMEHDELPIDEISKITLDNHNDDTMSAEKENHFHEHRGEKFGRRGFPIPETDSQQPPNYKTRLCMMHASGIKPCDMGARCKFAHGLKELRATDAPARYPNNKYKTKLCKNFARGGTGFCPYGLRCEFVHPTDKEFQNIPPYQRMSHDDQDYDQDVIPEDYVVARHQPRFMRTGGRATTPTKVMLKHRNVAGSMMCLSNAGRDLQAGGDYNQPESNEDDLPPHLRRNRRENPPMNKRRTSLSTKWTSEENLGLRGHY

Troponin, cardiac muscle = Troponin, cardiac muscle (Homo sapiens, UniProt P19429+P45379+P63316); test: Fluorescence-based biochemical high throughput dose response assay for activators of the calcium sensitivity of cardiac Regulated Thin Filaments (RTF). [Related pubchem assays (depositor defined):AID493008, AID493018, AID504382, AID504383]; type: protein-complex assay
Cytochrome P450 2C19 = Cytochrome P450 2C19 (Homo sapiens, UniProt P33261); test: Cytochrome panel assay with activity outcomes. Panel member name: p450-cyp2c19 Compounds with AC50 equal or less than 10 uM are considered active; type: functional; settings: read-out: AC50
[5] = target: T6, Corticotropin-releasing factor receptor 2/Corticotropin-releasing factor-binding protein (Homo sapiens, UniProt P24387+Q13324); test: activators of CRF receptor 2 with binding protein – uHTS hits, confirmation (AID 602473); type: functional; settings: read-out: EC50_Mean
T6 sequence (Q13324 whole entry): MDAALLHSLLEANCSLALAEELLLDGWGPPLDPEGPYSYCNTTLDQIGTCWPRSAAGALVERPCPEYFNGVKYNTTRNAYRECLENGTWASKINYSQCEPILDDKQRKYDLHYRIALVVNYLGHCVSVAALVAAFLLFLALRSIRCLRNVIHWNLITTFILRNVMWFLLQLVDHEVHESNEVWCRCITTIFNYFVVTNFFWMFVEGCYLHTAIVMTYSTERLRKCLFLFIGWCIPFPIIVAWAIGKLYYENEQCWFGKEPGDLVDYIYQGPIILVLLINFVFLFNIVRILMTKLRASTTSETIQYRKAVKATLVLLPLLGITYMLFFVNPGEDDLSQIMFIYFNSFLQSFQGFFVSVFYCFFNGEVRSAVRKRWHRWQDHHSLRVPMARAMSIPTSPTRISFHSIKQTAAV
T6 sequence (P24387 whole entry): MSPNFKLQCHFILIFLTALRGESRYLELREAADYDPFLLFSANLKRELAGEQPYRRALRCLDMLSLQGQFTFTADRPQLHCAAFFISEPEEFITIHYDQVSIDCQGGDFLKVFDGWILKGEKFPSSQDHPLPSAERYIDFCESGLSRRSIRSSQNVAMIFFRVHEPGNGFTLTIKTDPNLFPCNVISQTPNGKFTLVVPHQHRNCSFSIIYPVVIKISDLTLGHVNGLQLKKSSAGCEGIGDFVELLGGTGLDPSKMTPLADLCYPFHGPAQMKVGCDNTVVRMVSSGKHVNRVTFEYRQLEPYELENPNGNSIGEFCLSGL

Cytochrome P450 1A2 = target: T7, Cytochrome P450 1A2 (Homo sapiens, UniProt P05177);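 note: PubChem cytochrome P450 panel assay, CYP1A2 panel member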
T7 sequence (P05177 whole entry): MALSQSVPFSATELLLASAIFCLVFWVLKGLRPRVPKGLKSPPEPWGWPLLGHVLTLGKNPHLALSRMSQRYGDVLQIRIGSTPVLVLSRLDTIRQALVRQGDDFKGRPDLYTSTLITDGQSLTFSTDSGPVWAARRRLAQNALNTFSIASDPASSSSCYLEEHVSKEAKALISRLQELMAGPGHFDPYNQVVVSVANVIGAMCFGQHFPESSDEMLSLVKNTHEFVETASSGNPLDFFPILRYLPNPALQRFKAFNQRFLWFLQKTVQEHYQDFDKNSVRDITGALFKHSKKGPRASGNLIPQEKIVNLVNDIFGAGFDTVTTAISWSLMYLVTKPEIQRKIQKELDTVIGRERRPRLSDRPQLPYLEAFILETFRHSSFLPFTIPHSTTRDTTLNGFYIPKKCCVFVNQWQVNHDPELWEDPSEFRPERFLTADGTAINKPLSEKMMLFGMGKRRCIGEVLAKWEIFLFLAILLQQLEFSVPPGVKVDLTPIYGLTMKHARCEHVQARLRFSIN

Cytochrome P450 2C9 = Cytochrome P450 2C9 (Homo sapiens, UniProt P11712)
[6] = target: Voltage-gated inwardly rectifying potassium channel KCNH2 (Homo sapiens, UniProt Q12809); settings: Potency;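 note: confirmatory quantitative high-throughput screen measuring inhibition of hERG channel activity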
Vero [7] = test: cells; type: functional, cell-based; settings: Chlorocebus sabaeus
Vero [8] = test: cells; type: functional; settings: Chlorocebus sabaeus
Escherichia coli = test: microbe, parasite or virus in culture
[9] = decrease of insulin promoter-GFP reporter – imaging, high-content screening, mouse beta cells (AID 1628); type: functional; settings: MIN6
[10] = MIN6 cell viability loss – mouse insulinoma, cytotoxicity control, dose response (AID 2122); type: functional;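 note: confirmatory high-throughput counterscreen run to flag cytotoxic compounds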
[11] = target: T8, Microphthalmia-associated transcription factor (Homo sapiens, UniProt O75030); test: reducers of TRPM1 reporter luminescence, concentration series – cell-based, SK-MEL-5, cherry-picked, set 3, MITF inhibitor project, dose response (AID 493073); type: functional;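 note: SK-MEL-5 melanoma cells with luciferase driven by the MITF target TRPM1 promoter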
T8 sequence (O75030 whole entry): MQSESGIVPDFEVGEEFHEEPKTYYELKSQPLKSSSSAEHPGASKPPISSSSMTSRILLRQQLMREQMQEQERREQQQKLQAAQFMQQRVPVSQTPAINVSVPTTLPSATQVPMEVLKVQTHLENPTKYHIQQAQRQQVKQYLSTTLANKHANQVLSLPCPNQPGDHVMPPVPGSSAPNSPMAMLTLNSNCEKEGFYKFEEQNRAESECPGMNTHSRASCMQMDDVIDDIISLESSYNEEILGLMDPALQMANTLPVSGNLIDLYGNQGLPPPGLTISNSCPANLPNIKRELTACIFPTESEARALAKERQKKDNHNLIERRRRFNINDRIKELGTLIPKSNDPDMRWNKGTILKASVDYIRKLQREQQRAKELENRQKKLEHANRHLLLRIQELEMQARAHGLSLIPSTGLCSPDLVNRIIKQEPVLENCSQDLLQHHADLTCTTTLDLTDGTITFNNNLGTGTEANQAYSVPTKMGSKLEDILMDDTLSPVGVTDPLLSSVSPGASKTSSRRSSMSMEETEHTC

[12] = reduction of Shn3 3'UTR-driven luciferase in osteoblasts – cell-based, Clone20 osteoblasts, firefly luciferase, cherry-picked, dose response (AID 624132); type: functional;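 note: firefly luciferase luminescence from reporter carrying the Shn3 3'UTR in osteoblasts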
[13] = loss of viability in HepG2 cells – cell-based, CellTiter-Glo, cherry-picked, cytotoxicity control for Shn3 inhibitor project, dose response (AID 624134); type: functional
[14] = non-specific 3'UTR reporter inhibition in Clone20-Shn3RL – cell-based, Renilla luciferase, cherry-picked, counter-screen for Shn3 inhibitor project, dose response (AID 624133); type: functional
[15] = Luminescence Cell-Based Dose Retest to Confirm Inhibitors of Cancer Stem Cells. [Related pubchem assays (depositor defined):AID2717, AID2721]; type: functional; settings: Homo sapiens
[16] = Trypanosoma cruzi growth suppression in host cells – NIH3T3 host cells, beta-gal luminescence, confirmation (AID 2044); type: functional, cell-based;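 note: intracellular parasites grown in NIH/3T3 mouse fibroblasts as host cells; luminescent beta-galactosidase reporter signal from transgenic T. cruzi replicating inside host cells; inhibitors lower the luminescence signal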
[17] = NIH3T3 cell viability loss – ATP luminescence, mouse fibroblasts, counter-screen, dose response (AID 2010); type: functional, cell-based;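 note: cells exposed to compound for about 90 hours before reading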
[18] = target: Heat shock protein HSP 90-alpha (Homo sapiens, UniProt P07900); type: functional, organism-based

Chain of Phospholipase A2 (P04054 whole entry): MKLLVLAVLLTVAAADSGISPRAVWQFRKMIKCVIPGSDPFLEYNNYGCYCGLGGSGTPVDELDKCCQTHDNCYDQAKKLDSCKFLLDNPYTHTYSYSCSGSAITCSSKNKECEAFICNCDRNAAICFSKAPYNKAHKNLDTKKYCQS
Chain of Voltage-gated inwardly rectifying potassium channel KCNH2 (Q12809 whole entry): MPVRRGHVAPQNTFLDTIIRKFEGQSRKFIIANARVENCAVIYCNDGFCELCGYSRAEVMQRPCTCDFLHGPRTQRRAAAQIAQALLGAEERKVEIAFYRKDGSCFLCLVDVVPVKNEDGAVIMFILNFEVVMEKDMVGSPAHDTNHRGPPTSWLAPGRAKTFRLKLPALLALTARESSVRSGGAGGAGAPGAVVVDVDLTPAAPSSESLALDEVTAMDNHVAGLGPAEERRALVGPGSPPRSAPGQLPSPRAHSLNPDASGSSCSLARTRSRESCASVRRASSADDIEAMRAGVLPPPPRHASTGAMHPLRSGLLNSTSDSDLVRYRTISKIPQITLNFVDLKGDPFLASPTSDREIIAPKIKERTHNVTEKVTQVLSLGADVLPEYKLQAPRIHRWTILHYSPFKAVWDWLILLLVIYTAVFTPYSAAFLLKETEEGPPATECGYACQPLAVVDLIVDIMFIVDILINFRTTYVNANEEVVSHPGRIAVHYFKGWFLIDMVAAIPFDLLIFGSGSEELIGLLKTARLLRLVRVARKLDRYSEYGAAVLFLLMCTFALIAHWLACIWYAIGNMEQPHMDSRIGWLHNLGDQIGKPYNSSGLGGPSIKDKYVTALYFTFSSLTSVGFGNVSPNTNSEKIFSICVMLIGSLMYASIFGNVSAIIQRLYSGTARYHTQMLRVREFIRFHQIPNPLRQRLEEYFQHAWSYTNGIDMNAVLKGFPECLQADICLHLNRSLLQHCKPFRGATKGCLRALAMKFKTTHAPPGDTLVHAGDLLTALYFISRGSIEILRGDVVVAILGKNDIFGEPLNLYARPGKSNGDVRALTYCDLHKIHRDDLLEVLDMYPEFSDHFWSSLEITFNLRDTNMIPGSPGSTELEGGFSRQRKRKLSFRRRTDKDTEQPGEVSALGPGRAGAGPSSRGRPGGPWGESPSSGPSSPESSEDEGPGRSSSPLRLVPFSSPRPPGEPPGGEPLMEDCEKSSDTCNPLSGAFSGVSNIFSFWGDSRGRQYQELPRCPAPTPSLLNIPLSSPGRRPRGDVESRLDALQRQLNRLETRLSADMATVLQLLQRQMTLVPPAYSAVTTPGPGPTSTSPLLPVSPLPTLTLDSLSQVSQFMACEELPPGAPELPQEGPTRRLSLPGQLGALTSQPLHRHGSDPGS
Chain of Cytochrome P450 2C9 (P11712 whole entry): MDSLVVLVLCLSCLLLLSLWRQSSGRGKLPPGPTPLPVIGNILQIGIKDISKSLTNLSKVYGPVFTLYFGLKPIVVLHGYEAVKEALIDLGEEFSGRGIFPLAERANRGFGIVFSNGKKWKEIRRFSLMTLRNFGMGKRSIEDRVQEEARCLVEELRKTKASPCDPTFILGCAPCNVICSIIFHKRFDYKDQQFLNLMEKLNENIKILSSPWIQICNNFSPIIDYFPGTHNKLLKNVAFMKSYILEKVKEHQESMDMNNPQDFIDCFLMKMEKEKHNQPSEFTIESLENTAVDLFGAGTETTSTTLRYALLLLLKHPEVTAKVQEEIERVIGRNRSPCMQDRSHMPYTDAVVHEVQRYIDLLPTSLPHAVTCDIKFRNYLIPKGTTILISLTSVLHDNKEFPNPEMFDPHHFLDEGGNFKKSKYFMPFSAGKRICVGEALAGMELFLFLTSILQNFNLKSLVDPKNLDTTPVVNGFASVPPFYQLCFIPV
Chain of Cytochrome P450 2C19 (P33261 whole entry): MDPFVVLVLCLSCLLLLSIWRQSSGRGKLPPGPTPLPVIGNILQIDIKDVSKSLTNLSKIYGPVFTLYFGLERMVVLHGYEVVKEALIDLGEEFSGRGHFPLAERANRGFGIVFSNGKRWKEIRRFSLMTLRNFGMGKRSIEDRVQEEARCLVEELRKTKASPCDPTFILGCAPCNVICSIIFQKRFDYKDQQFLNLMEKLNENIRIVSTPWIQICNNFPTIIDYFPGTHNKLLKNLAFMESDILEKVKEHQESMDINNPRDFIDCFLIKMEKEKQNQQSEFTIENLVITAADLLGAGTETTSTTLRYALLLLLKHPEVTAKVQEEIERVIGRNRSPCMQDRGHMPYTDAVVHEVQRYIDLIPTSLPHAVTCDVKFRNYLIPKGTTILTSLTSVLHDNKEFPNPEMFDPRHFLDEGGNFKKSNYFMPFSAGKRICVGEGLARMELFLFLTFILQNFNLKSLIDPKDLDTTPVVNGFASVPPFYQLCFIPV

Cc1sc2nc(C3CCCCC3)nc(SCC(=O)N3CC(=O)Nc4ccccc43)c2c1C
IC50 (Cysteine protease ATG4B): 0.316 µM (active) | IC50 (Phospholipase A2): 0.182 µM (active)

CCN(Cc1ccccc1)S(=O)(=O)c1ccc(C(=O)N(CCCN(C)C)c2nc3cc4c(cc3s2)OCCO4)cc1
IC50 (Bcl-2-related protein A1): > 20 µM (inactive) | IC50 [1]: 2.81 µM (active) | IC50 [2]: 2.93 µM (active)

O=C1c2cccc3cccc(c23)C(=O)N1CCN1CCN(CC(O)COCc2ccc(Cl)cc2)CC1 (configuration not stated)
IC50 (Bcl-2-related protein A1): > 20 µM (inactive) | IC50 [1]: 2.89 µM (active) | IC50 [2]: 2.31 µM (active)

COc1ccc(C(=O)Nc2cc(C(C)=O)c(/C=C/N(C)C)oc2=O)cc1
EC50 [3]: 54.1 µM (active) | EC50 [4]: 54.8 µM (active) | EC50 (Troponin, cardiac muscle): 10.5 µM (inactive) | AC50 (Cytochrome P450 2C19): 10 µM (inconclusive) | EC50 [5]: 6.69 µM (active) | AC50 (Cytochrome P450 1A2): 15.8 µM (inconclusive) | AC50 (Cytochrome P450 2C9): 22.4 µM (inconclusive)

C=C(C)C(=O)OCCCCCCCCCC
AC50 [6]: 3.55 µM (inconclusive)

CCn1c(=O)c2nc(Cl)[nH]c2n(CC)c1=O
IC50 (Vero [7]): 17 µM (active) | CC50 (Vero [8]): > 25 µM (active)

CC(O)[C@@H](O)[C@H]1CNc2nc(N)[nH]c(=O)c2N1 (some centres not stated)
AC50 [6]: 3.55 µM (inconclusive)

Oc1c(Br)cc(Br)cc1/C=N/c1ccc2c(c1)OCO2
IC50 (Cysteine protease ATG4B): 4.43 µM (active) | IC50 (Phospholipase A2): 7.68 µM (active)

CS(=O)(=O)N1CCN(C(=O)c2cccnc2)CC1
AC50 (Escherichia coli): > 150 µM (inactive)

Oc1cccc(Cl)c1Cl
AC50 [6]: 5.01 µM (inconclusive)

COc1ccc(C(=O)C(CN2CCOCC2)c2ccccc2)cc1 (configuration not stated)
IC50 [9]: 4.99 µM (active) | IC50 [10]: 4.42 µM (active) | AC50 [11]: 7.29 µM (active) | AC50 [12]: 5.59 µM (active) | AC50 [13]: > 70 µM (inactive) | AC50 [14]: 11.2 µM (active)

Cc1ccc(NC(=O)CN(C)CC(=O)Nc2cccc(F)c2)cc1[N+](=O)[O-]
IC50 [9]: 0.765 µM (active) | IC50 [10]: 0.487 µM (active) | AC50 [12]: 0.57 µM (active) | AC50 [13]: > 70 µM (inactive) | AC50 [14]: 10.1 µM (active)

Cc1nc(NC(=O)c2ccco2)sc1-c1csc(Nc2ccc(Cl)cc2)n1
AC50 [15]: 2.03 µM (active) | AC50 (Escherichia coli): 39.7 µM (active)

CC1(C)Cc2c(sc(NC(=O)C(=O)NCCCN3CCOCC3)c2C(N)=O)CO1
IC50 (Bcl-2-related protein A1): > 20 µM (inactive) | IC50 [1]: 7.92 µM (active) | IC50 [2]: 2.14 µM (active)

Oc1cc2c(cc1O)CN(C(=S)NCCc1ccc(Cl)cc1)CCC2 [CAPSAZEPINE]
AC50 [6]: 11.2 µM (inconclusive)

CC(C)Cn1cnc2c(c(-c3ccccc3)c(-c3ccccc3)n2Cc2ccco2)c1=N
IC50 [9]: 1.69 µM (active) | IC50 [10]: 2.88 µM (active) | EC50 [16]: 0.879 µM (active) | EC50 [17]: 8.39 µM (active)

CCCCCCOC(=O)Sc1nc2ccccc2o1
AC50 [18]: 2.78 µM (active)

CC1CC(C)CN(C(=O)c2ccc(C(=O)c3ccccc3)cc2)C1 (configuration not stated)
IC50 (Cysteine protease ATG4B): 10.8 µM (active) | IC50 (Phospholipase A2): 8.32 µM (active)
